Measurements: ChEMBL document CHEMBL1123754, “N6-phenyladenosines: pronounced effect of phenyl substituents on affinity for A2 adenosine receptors” (J Med Chem, 1987)

Assays:
[1] = Relative affinities for adenosine A2 and A1 receptors
[2] = target: T1, Adenosine receptor A1 (Gallus gallus, UniProt P49892); experiment: Displacement of [125I]ABA from adenosine A1 receptor of chick cerebellar membrane
T1 sequence (P49892 whole entry): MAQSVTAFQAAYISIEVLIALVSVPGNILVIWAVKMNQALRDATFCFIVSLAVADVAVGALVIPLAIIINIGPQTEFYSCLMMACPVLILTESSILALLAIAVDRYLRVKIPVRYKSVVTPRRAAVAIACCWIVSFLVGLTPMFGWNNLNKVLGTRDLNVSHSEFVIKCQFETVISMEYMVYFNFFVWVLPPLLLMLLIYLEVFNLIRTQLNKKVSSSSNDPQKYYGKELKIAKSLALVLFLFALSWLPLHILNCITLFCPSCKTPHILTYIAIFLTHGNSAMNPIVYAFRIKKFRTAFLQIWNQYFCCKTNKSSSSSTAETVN

[3] = target: Adenosine A2 receptor (Rattus norvegicus, UniProt P29276+P30543)
Description: Displacement of [3H]-NECA from adenosine A2 receptor of rat striatal membrane

[4] = target: T1, Adenosine receptor A1; experiment: Binding affinity for Adenosine A1 receptor using [125I]-ABA in chick cerebellar membrane; assay type: cell membranes, Cerebellum

## CCc1ccc(Nc2ncnc3c2ncn3C2O[C@H](CO)[C@@H](O)[C@H]2O)cc1 (stereo partly drawn)
[1]
  Selectivity: 75
[2]
  IC50: 12.8 nM
[3]
  IC50: 960 nM

## OC[C@H]1OC(n2cnc3c(Nc4cccc(F)c4)ncnc32)[C@H](O)[C@@H]1O (stereo partly drawn)
[1]
  Selectivity: 155
[2]
  IC50: 10.3 nM
[3]
  IC50: 1600 nM

## Cc1ccc(Nc2ncnc3c2ncn3C2O[C@H](CO)[C@@H](O)[C@H]2O)cc1 (stereo partly drawn)
[1]
  Selectivity: 110
[2]
  IC50: 8.5 nM
[3]
  IC50: 920 nM

## OC[C@H]1OC(n2cnc3c(Nc4ccc(I)cc4)ncnc32)[C@H](O)[C@@H]1O (stereo partly drawn)
[1]
  Selectivity: 150
[2]
  IC50: 8.5 nM
[3]
  IC50: 1280 nM

## OC[C@H]1O[C@@H](n2cnc3c(Nc4ccccc4)ncnc32)[C@H](O)[C@@H]1O [N6-PHENYLADENOSINE]
[1]
  Selectivity: 140
[2]
  IC50: 4.6 nM
[3]
  IC50: 660 nM

## OC[C@H]1OC(n2cnc3c(Nc4cccc(I)c4)ncnc32)[C@H](O)[C@@H]1O (stereo partly drawn)
[1]
  Selectivity: 620
[2]
  IC50: 19 nM
[3]
  IC50: 11900 nM

## OC[C@H]1OC(n2cnc3c(Nc4cccc(B(O)O)c4)ncnc32)[C@H](O)[C@@H]1O (stereo partly drawn)
[1]
  Selectivity: 220
[2]
  IC50: 42.1 nM
[3]
  IC50: 9300 nM

## Nc1cccc(Nc2ncnc3c2ncn3C2O[C@H](CO)[C@@H](O)[C@H]2O)c1 (stereo partly drawn)
[1]
  Selectivity: 225
[2]
  IC50: 45.1 nM
[3]
  IC50: 10100 nM

## OC[C@H]1O[C@@H](n2cnc3c(NC4CCCCC4)ncnc32)[C@H](O)[C@@H]1O
[2]
  IC50: 2.5 nM

## OC[C@H]1OC(n2cnc3c(Nc4ccc(F)cc4)ncnc32)[C@H](O)[C@@H]1O (stereo partly drawn)
[1]
  Selectivity: 65
[2]
  IC50: 13.1 nM
[3]
  IC50: 860 nM

## COc1ccc(Nc2ncnc3c2ncn3[C@@H]2O[C@H](CO)[C@@H](O)[C@H]2O)cc1
[1]
  Selectivity: 275
[2]
  IC50: 6.4 nM
[3]
  IC50: 1760 nM

## OC[C@H]1OC(n2cnc3c(Nc4cccc(O)c4)ncnc32)[C@H](O)[C@@H]1O (stereo partly drawn)
[1]
  Selectivity: 690
[3]
  IC50: 7640 nM
[4]
  IC50: 11.1 nM

## CCNC(=O)[C@H]1O[C@@H](n2cnc3c(N)ncnc32)[C@H](O)[C@@H]1O [NECA]
[2]
  IC50: 17 nM

## CCc1cccc(Nc2ncnc3c2ncn3C2O[C@H](CO)[C@@H](O)[C@H]2O)c1 (stereo partly drawn)
[1]
  Selectivity: 403
[2]
  IC50: 25.3 nM
[3]
  IC50: 10200 nM
